Common to all, as to assay type: in vivo
For series [1], the system named is Scirpus juncoides. Description: Test Example 1: herbicidal activity, application before weed generation in submerged conditions. Particulars: Seventeenth Table. In short, it runs like this:
(§1)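 Water-diluted emulsion formulation is applied onto flood water (4 cm deep) covering alluvial soil on the day weed seeds are sown, after transplanting 2.5 leaf stage rice. Rates are expressed per hectare. Injury or control is graded 0–5 three weeks later.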

Series [2] relates to Monochoria vaginalis. The description is as above. Particulars: Seventeenth Table. In a few lines: as §1
The test system of series [3] is Echinochloa oryzacola Vasing. The series is described as above. Particulars: Seventeenth Table. In short, it runs like this: as §1
Series [4] concerns Galium spurium. Description: Test Example 4: herbicidal effect by application to foliage (diluvial soil, plastic box). Particulars: for Q: Application herbicide amount 320 g/ha. In a few lines: (§2)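 Greenhouse plants (25° C. to 30° C., 14 d, diluvial soil) receive a foliar spray of water-diluted emulsifiable formulation at defined g/ha. Grading after 3 weeks uses a six-step herbicidal-ratio scale, with 4 covering 70% to <90% and 1 covering 5% to <20%.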

Series [5] concerns Abutilon theophrasti. The description is as above. Particulars: for M: Application herbicide amount 320 g/ha. In short, it runs like this: as §2
In series [6] the test system is Avena fatua. Described as above. Particulars: for I: Application herbicide amount 320 g/ha. In short, it runs like this: as §2
Series [7] concerns Apera spica-venti. The series is described as above. Particulars: for L: Application herbicide amount 320 g/ha. In a few lines: as §2
Series [8] deals with Alopecurus myosuroides. The series is described as above. As to conditions: for J: Application herbicide amount 320 g/ha. In short, it runs like this: as §2
Series [9] relates to Lolium multiflorum Lam. The series is described as above. Particulars: for K: Application herbicide amount 320 g/ha. In a few lines: as §2
The test system of series [10] is Echinochloa crus-galli var. crus-galli. The series is described as above. Particulars: for H: Application herbicide amount 320 g/ha. In short, it runs like this: as §2
For series [11], the system named is Chenopodium album. The description is as above. Particulars: for O: Application herbicide amount 320 g/ha. In a few lines: as §2
Series [12] has as its system Digitaria ciliaris. The series is described as above. Particulars: for F: Application herbicide amount 320 g/ha. In a few lines: as §2
The test system of series [13] is Veronica persica. The description is as above. Particulars: for R: Application herbicide amount 320 g/ha. In short, it runs like this: as §2
For series [14], the system named is Setaria viridis. The series is described as above. Particulars: for G: Application herbicide amount 320 g/ha. In short, it runs like this: as §2
Series [15] concerns Triticum aestivum. Description: Test Example 4: effect on crop by application to foliage (diluvial soil, plastic box). Particulars: for e: Application herbicide amount 320 g/ha, effect on crop. In a few lines:
as §2

Series [16] deals with Brassica campestris L. The series is described as above. Particulars: for g: Application herbicide amount 320 g/ha, effect on crop. In short, it runs like this:
as §2

For series [17], the system named is Glycine max. The description is as above. Particulars: for c: Application herbicide amount 320 g/ha, effect on crop. In short, it runs like this: as §2
Series [18] deals with Beta vulgaris ssp. vulgaris. The series is described as above. Particulars: for f: Application herbicide amount 320 g/ha, effect on crop. In a few lines: as §2
The test system of series [19] is directly sowed Oryza sativa. Described as above. Particulars: for d: Application herbicide amount 320 g/ha, effect on crop. In a few lines:
as §2

The subject of series [20] is transplanted Oryza sativa. Description: Test Example 1: effect on crop, application before weed generation in submerged conditions. Particulars: Seventeenth Table. In a few lines: as §1
Series [21] deals with Zea mays. Description: Test Example 4: effect on crop by application to foliage (diluvial soil, plastic box). As to conditions: Application herbicide amount 320 g/ha; effect on crop. In a few lines:
as §2

[22] abbreviates: Application herbicide amount 141 g/ha.
Setting [23] is: application to foliage, 141 g/ha.
Where [24] appears, read: Application herbicide amount 320 g/ha.

Structures are written as SMILES.

As to `CCN(C)c1nnc2c(C(=O)Nc3nnnn3C)ccc(C(F)(F)F)n12` [2-088], the “B: Scirpus juncoides (herbicidal effect grade)” value (“B: Scirpus juncoides” for short) in series [1] (setting [22]) was 5 (Herbicidal ratio of 90% or more (almost completely withered)). Also, in series [2] (setting [22]), the “C: Monochoria vaginalis (herbicidal effect grade)” value (from here on “C: Monochoria vaginalis”) was 5 (Herbicidal ratio of 90% or more (almost completely withered)). In series [3] (setting [22]), the “A: Echinochloa oryzicola Vasing. (herbicidal effect grade)” value was 5 (Herbicidal ratio of 90% or more (almost completely withered)). Besides, in series [4] (setting [23]), the “herbicidal effect, Q (Galium spurium)” value is 3 (Herbicidal ratio of 40% or more and less than 70%). The “herbicidal effect, M (Abutilon theophrasti)” value in series [5] (setting [23]) is given as 5 (Herbicidal ratio of 90% or more (almost completely withered)). Besides, the “herbicidal effect, I (Avena fatua)” value in series [6] (setting [23]) is 4 (Herbicidal ratio of 70% or more and less than 90%). Also, the “herbicidal effect, L (Apera spica-venti.)” value in series [7] (setting [23]) was 4 (Herbicidal ratio of 70% or more and less than 90%). Also, in series [8] (setting [23]), the “herbicidal effect, J (Alopecurus myosuroides)” value is 3 (Herbicidal ratio of 40% or more and less than 70%). Besides, the “herbicidal effect, K (Lolium multiflorum Lam.)” value in series [9] (setting [23]) was 3 (Herbicidal ratio of 40% or more and less than 70%). For the same compound, in [10] (setting [23]), the “herbicidal effect, H (Echinochloa crus-galli var. crus-galli)” value was 5 (Herbicidal ratio of 90% or more (almost completely withered)). For the same compound, the “herbicidal effect, O (Chenopodium album)” value in series [11] (setting [23]) is 5 (Herbicidal ratio of 90% or more (almost completely withered)). For the same compound, in [12] (setting [23]), the “herbicidal effect, F (Digitaria ciliaris)” value is given as 5 (Herbicidal ratio of 90% or more (almost completely withered)). In addition, the “herbicidal effect, R (Veronica persica)” value in [13] (setting [23]) is 4 (Herbicidal ratio of 70% or more and less than 90%). Moreover, in series [14] (setting [23]), the “herbicidal effect, G (Setaria viridis)” value is reported as 5 (Herbicidal ratio of 90% or more (almost completely withered)). For the same compound, the “effect on crop, e (Triticum aestivum)” value in series [15] (setting [23]) is 0 (Herbicidal ratio of 5% or less (almost no effect)). Further, the “effect on crop, g (Brassica campestris L.)” value in series [16] (setting [23]) is 5 (Herbicidal ratio of 90% or more (almost completely withered)). In addition, the “effect on crop, c (Glycine max)” value in series [17] (setting [23]) was 0 (Herbicidal ratio of 5% or less (almost no effect)). Moreover, the “effect on crop, f (Beta vulgaris ssp. vulgaris)” value in series [18] (setting [23]) is on record as 5 (Herbicidal ratio of 90% or more (almost completely withered)). For the same compound, the “effect on crop, d (directly sowed Oryza sativa)” value in [19] (setting [23]) was 4 (Herbicidal ratio of 70% or more and less than 90%). For the same compound, the “a: transplanted Oryza sativa (effect on crop grade)” value (“a: transplanted Oryza sativa” for short) in series [20] (setting [22]) was 3 (Herbicidal ratio of 40% or more and less than 70%).
With `C=CC[S+]([O-])c1nnc2c(C(=O)Nc3nnc(C)o3)ccc(C(F)(F)F)n12` (centres unmarked) [1-074], in series [1] (setting [24]), the “B: Scirpus juncoides” value was 2 (Herbicidal ratio of 20% or more and less than 40%). Moreover, the “C: Monochoria vaginalis” value in [2] (setting [24]) is 0 (Herbicidal ratio of 5% or less (almost no effect)). Also, the “A: Echinochloa oryzicola Vasing. (herbicidal effect grade)” value in [3] (setting [24]) was 2 (Herbicidal ratio of 20% or more and less than 40%). Moreover, the Q in [4] is 3 (Herbicidal ratio of 40% or more and less than 70%). The I in series [6] was 1 (Herbicidal ratio of 5% or more and less than 20%). The L in series [7] is 0 (Herbicidal ratio of 5% or less (almost no effect)). In [8], the J is 0 (Herbicidal ratio of 5% or less (almost no effect)). Also, the K in series [9] is reported as 0 (Herbicidal ratio of 5% or less (almost no effect)). In addition, the H in series [10] was 5 (Herbicidal ratio of 90% or more (almost completely withered)). Also, in series [11], the O was 5 (Herbicidal ratio of 90% or more (almost completely withered)). Also, the F in series [12] is 4 (Herbicidal ratio of 70% or more and less than 90%). Besides, the R in [13] is 3 (Herbicidal ratio of 40% or more and less than 70%). In addition, the G in series [14] was 4 (Herbicidal ratio of 70% or more and less than 90%). Moreover, in series [15], the e was 0 (Herbicidal ratio of 5% or less (almost no effect)). Further, the g in series [16] is 3 (Herbicidal ratio of 40% or more and less than 70%). The b in series [21] was 0 (Herbicidal ratio of 5% or less (almost no effect)). Further, in [17], the c was 0 (Herbicidal ratio of 5% or less (almost no effect)). In [18], the f is 4 (Herbicidal ratio of 70% or more and less than 90%). For the same compound, the d in [19] was 3 (Herbicidal ratio of 40% or more and less than 70%). Further, the “a: transplanted Oryza sativa” value in series [20] (setting [24]) was 0 (Herbicidal ratio of 5% or less (almost no effect)).
On to `Cc1nnc(NC(=O)c2ccc(C(F)(F)F)n3c(CCS(C)(=O)=O)nnc23)o1` [1-085], for which, in series [1] (setting [24]), the “B: Scirpus juncoides” value was 4 (Herbicidal ratio of 70% or more and less than 90%). Besides, the “C: Monochoria vaginalis” value in series [2] (setting [24]) was 3 (Herbicidal ratio of 40% or more and less than 70%). For the same compound, the “A: Echinochloa oryzicola Vasing. (herbicidal effect grade)” value in series [3] (setting [24]) was 3 (Herbicidal ratio of 40% or more and less than 70%). The Q in series [4] is 4 (Herbicidal ratio of 70% or more and less than 90%). Further, the M in [5] is 5 (Herbicidal ratio of 90% or more (almost completely withered)). Besides, in series [7], the L is 3 (Herbicidal ratio of 40% or more and less than 70%). Besides, the J in series [8] was 3 (Herbicidal ratio of 40% or more and less than 70%). Besides, the K in series [9] was 3 (Herbicidal ratio of 40% or more and less than 70%). Further, in [10], the H is given as 5 (Herbicidal ratio of 90% or more (almost completely withered)). The O in series [11] is 5 (Herbicidal ratio of 90% or more (almost completely withered)). The F in [12] is 5 (Herbicidal ratio of 90% or more (almost completely withered)). The R in series [13] is 5 (Herbicidal ratio of 90% or more (almost completely withered)). In [14], the G is 5 (Herbicidal ratio of 90% or more (almost completely withered)). The e in series [15] was 3 (Herbicidal ratio of 40% or more and less than 70%). In addition, the g in series [16] was 4 (Herbicidal ratio of 70% or more and less than 90%). Besides, the b in [21] is 3 (Herbicidal ratio of 40% or more and less than 70%). In [17], the c is 3 (Herbicidal ratio of 40% or more and less than 70%). Moreover, in [18], the f was 4 (Herbicidal ratio of 70% or more and less than 90%). Moreover, the d in series [19] is 4 (Herbicidal ratio of 70% or more and less than 90%). In series [20] (setting [24]), the “a: transplanted Oryza sativa” value was 3 (Herbicidal ratio of 40% or more and less than 70%).
In the case of `COc1ccc(Cc2nnc3c(C(=O)Nc4nnc(C)o4)ccc(C(F)(F)F)n23)cc1` [1-069], the “B: Scirpus juncoides” value in series [1] (setting [24]) was 4 (Herbicidal ratio of 70% or more and less than 90%). The “C: Monochoria vaginalis” value in [2] (setting [24]) is 3 (Herbicidal ratio of 40% or more and less than 70%). For the same compound, in series [3] (setting [24]), the “A: Echinochloa oryzicola Vasing. (herbicidal effect grade)” value is reported as 5 (Herbicidal ratio of 90% or more (almost completely withered)). In addition, the Q in series [4] is 3 (Herbicidal ratio of 40% or more and less than 70%). Moreover, in [5], the M was 3 (Herbicidal ratio of 40% or more and less than 70%). In addition, in series [6], the I was 2 (Herbicidal ratio of 20% or more and less than 40%). In addition, the L in series [7] is 4 (Herbicidal ratio of 70% or more and less than 90%). Moreover, the J in series [8] was 2 (Herbicidal ratio of 20% or more and less than 40%). The K in series [9] was 2 (Herbicidal ratio of 20% or more and less than 40%). For the same compound, in [10], the H is reported as 5 (Herbicidal ratio of 90% or more (almost completely withered)). Besides, the O in series [11] is 5 (Herbicidal ratio of 90% or more (almost completely withered)). The F in series [12] was 5 (Herbicidal ratio of 90% or more (almost completely withered)). Further, in series [14], the G is 5 (Herbicidal ratio of 90% or more (almost completely withered)). Further, the e in series [15] was 1 (Herbicidal ratio of 5% or more and less than 20%). Besides, the g in series [16] was 3 (Herbicidal ratio of 40% or more and less than 70%). Besides, the b in [21] was 0 (Herbicidal ratio of 5% or less (almost no effect)). In [17], the c is 1 (Herbicidal ratio of 5% or more and less than 20%). Besides, the f in series [18] is 5 (Herbicidal ratio of 90% or more (almost completely withered)). The d in [19] was 3 (Herbicidal ratio of 40% or more and less than 70%). Besides, the “a: transplanted Oryza sativa” value in [20] (setting [24]) is given as 0 (Herbicidal ratio of 5% or less (almost no effect)).

These data come from patent US9708314B2, “Heterocyclic amide compound” (NISSAN CHEMICAL INDUSTRIES, LTD., priority 2013, dated 2017).
